Data as given in patent US4820694A, “Modifications of 3-O-demethylmycinose in macrocin and lactenocin” (priority 1986, dated 1989).
Converted amounts (≈) assume the structure as drawn. Like-named read-outs stand apart in the source and are kept apart here.

Key:
Escherichia coli EC14 = assay: standard agar-dilution MIC assay; assay type: cell-based
Description: (§1) The MIC's in Table III were determined by standard agar-dilution assays. The MIC's in Table IV were obtained using conventional brothdilution microtiter tests.

[1] = tested on: Haemophilus influenzae 76; assay: standard agar-dilution MIC assay; assay type: cell-based; settings: Haemophilus influenzae, 76
Description: as §1

[2] = tested on: Haemophilus influenzae C.L.; assay: standard agar-dilution MIC assay; assay type: cell-based; settings: Haemophilus influenzae
Description: as §1

[3] = tested on: Klebsiella pneumoniae X68; assay: standard agar-dilution MIC assay; assay type: cell-based; settings: Klebsiella pneumoniae, X68
Description: as §1

[4] = tested on: Pseudomonas aeruginosa X239; assay: standard agar-dilution MIC assay; assay type: cell-based; settings: Pseudomonas aeruginosa, X239
Description: as §1

[5] = tested on: Staphylococcus aureus V41; assay: standard agar-dilution MIC assay; assay type: cell-based; settings: Staphylococcus aureus, V41
Description: as §1

[6] = tested on: Staphylococcus aureus X1.1; assay: standard agar-dilution MIC assay; assay type: cell-based; settings: Staphylococcus aureus, X1.1
Description: as §1

[7] = tested on: Staphylococcus aureus X400; assay: standard agar-dilution MIC assay; assay type: cell-based; settings: Staphylococcus aureus, X400
Description: as §1

[8] = tested on: Staphylococcus epidermidis EP12; assay: standard agar-dilution MIC assay; assay type: cell-based
Description: as §1

[9] = tested on: Staphylococcus epidermidis EPI1; assay: standard agar-dilution MIC assay; assay type: cell-based; settings: Staphylococcus epidermidis, EPI1
Description: as §1

[10] = tested on: Streptococcus Group D 9960; assay: standard agar-dilution MIC assay; assay type: cell-based; settings: GROUPD9960, read-out: MIC
Description: as §1

[11] = tested on: Streptococcus Group D X66; assay: standard agar-dilution MIC assay; assay type: cell-based; settings: read-out: MIC
Description: as §1

[12] = tested on: Streptococcus pyogenes C203; assay: standard agar-dilution MIC assay; assay type: cell-based; settings: Streptococcus pyogenes, C203
Description: as §1

[13] = tested on: Staphylococcus aureus S13E; assay: microbe, parasite or virus in culture; assay type: cell-based; settings: Staphylococcus aureus, S13E
Description: as §1

[14] = tested on: Streptococcus pneumoniae Park I; assay: microbe, parasite or virus in culture; assay type: cell-based; settings: Streptococcus pneumoniae
Description: as §1

[15] = tested on: Bordetella bronchiseptica; assay: broth-dilution microtiter MIC test; assay type: cell-based; settings: Bordetella bronchiseptica
Description: as §1

[16] = tested on: Mycoplasma gallisepticum 15E; assay: broth-dilution microtiter MIC test; assay type: cell-based; settings: Mycoplasmoides gallisepticum, 15E
Description: as §1

[17] = tested on: Mycoplasma gallisepticum 29C; assay: broth-dilution microtiter MIC test; assay type: cell-based; settings: Mycoplasmoides gallisepticum, 29C
Description: as §1

[18] = tested on: Mycoplasma gallisepticum 36H; assay: broth-dilution microtiter MIC test; assay type: cell-based; settings: Mycoplasmoides gallisepticum, 36H
Description: as §1

Mycoplasma hyorhinis 29E = assay: broth-dilution microtiter MIC test; assay type: cell-based; settings: Mycoplasma, 29E
Description: as §1

Mycoplasma synoviae 40A = assay: broth-dilution microtiter MIC test; assay type: cell-based; settings: Mycoplasmopsis synoviae, 40A
Description: as §1

[19] = tested on: Pasteurella hemolytica 22C; assay: broth-dilution microtiter MIC test; assay type: cell-based; settings: Pasteurella, 22C
Description: as §1

[20] = tested on: Pasteurella hemolytica 23C; assay: broth-dilution microtiter MIC test; assay type: cell-based; settings: Pasteurella, 23C
Description: as §1

[21] = tested on: Pasteurella hemolytica 41D; assay: broth-dilution microtiter MIC test; assay type: cell-based; settings: Pasteurella, 41D
Description: as §1

[22] = tested on: Pasteurella multocida 17E; assay: broth-dilution microtiter MIC test; assay type: cell-based; settings: Pasteurella multocida, 17E
Description: as §1

[23] = tested on: Pasteurella multocida 22A; assay: broth-dilution microtiter MIC test; assay type: cell-based; settings: Pasteurella multocida, 22A
Description: as §1

[24] = tested on: Pasteurella multocida 40G; assay: broth-dilution microtiter MIC test; assay type: cell-based; settings: Pasteurella multocida, 40G
Description: as §1

[25] = tested on: Pasteurella multocida 60A; assay: broth-dilution microtiter MIC test; assay type: cell-based; settings: Pasteurella multocida, 60A
Description: as §1

[26] = tested on: Pasteurella multocida 68C; assay: broth-dilution microtiter MIC test; assay type: cell-based; settings: Pasteurella multocida, 68C
Description: as §1

[27] = tested on: Staphylococcus aureus 19C; assay: broth-dilution microtiter MIC test; assay type: cell-based; settings: Staphylococcus aureus, 19C
Description: as §1

Streptococcus sp. 19F = assay: broth-dilution microtiter MIC test; assay type: cell-based; settings: Streptococcus, SP.19F
Description: as §1

[28] = tested on: Streptococcus pyogenes C203; assay: protection of mice experimentally infected with S. pyogenes C203; assay type: in vivo
How it was run: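 Activity is given as ED50, the mg/kg dose (×2) protecting half of the mice infected with S. pyogenes C203. Compound was dosed 1 and 4 h after infection.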

[29] = tested on: Staphylococcus epidermidis 222; assay: standard agar-dilution MIC assay; assay type: cell-based; settings: Staphylococcus epidermidis, 222; agar-dilution; read-out: MIC
Description: as §1

[30] = tested on: Streptococcus Group D 2041; assay: standard agar-dilution MIC assay; assay type: cell-based; settings: GROUPD2041
Description: as §1

[31] = agar-dilution, Penicillin-resistant strain, read-out: MIC
[32] = broth-dilution microtiter, read-out: MIC

Row | Structure (SMILES) | MIC (Escherichia coli EC14) [µg/mL] | MIC [1] [µg/mL] | MIC [3] [µg/mL] | MIC [4] [µg/mL] | MIC [5, 31] [µg/mL] | MIC ([6]; agar-dilution, read-out: MIC) [µg/mL] | MIC [7] [µg/mL] | MIC [10] [µg/mL] | MIC [11] [µg/mL] | MIC [12] [µg/mL] | MIC [13] [µg/mL] | MIC [15] [µg/mL] | MIC [16] [µg/mL] | MIC [18] [µg/mL] | MIC [19] [µg/mL] | MIC [20] [µg/mL] | MIC [21] [µg/mL] | MIC [22] [µg/mL] | MIC [23] [µg/mL] | MIC [24] [µg/mL] | other results
1 | CCC1OC(=O)CC(O)C(C)C(OC2OC(C)C(OC3CC(C)(O)C(O)C(C)O3)C(N(C)C)C2OC(C)=O)C(CC=O)CC(C)C(=O)C=CC(C)=CC1COC1OC(C)C(OC(C)=O)C(O)C1OC (stereo not shown) [Compound 1, 2',4'"-Di-O-acetyl-macrocin] | > 128 | 1 (≈ 1.01 µM) | > 128 | > 128 | 2 (≈ 2.03 µM) | 2 (≈ 2.03 µM) | 4 (≈ 4.06 µM) | 4 (≈ 4.06 µM) | 4 (≈ 4.06 µM) | 1 (≈ 1.01 µM) | 4 (≈ 4.06 µM) | > 50 | > 50 | > 50 | > 50 | > 50 | > 50 | > 50 | > 50 | > 50 | MIC ([2]; agar-dilution, Ampicillin-sensitive strain, read-out: MIC): 64 µg/mL (≈ 64.9 µM); MIC ([8]; agar-dilution, read-out: MIC): 2 µg/mL (≈ 2.03 µM); MIC ([9]; agar-dilution, read-out: MIC): 2 µg/mL (≈ 2.03 µM); MIC ([14]; agar-dilution, read-out: MIC): 0.5 µg/mL (≈ 0.507 µM); MIC [17, 32]: 0.78 µg/mL (≈ 0.791 µM); MIC (Mycoplasma hyorhinis 29E; [32]): 25 µg/mL (≈ 25.4 µM); MIC (Mycoplasma synoviae 40A; [32]): 1.56 µg/mL (≈ 1.58 µM); MIC [25]: > 50 µg/mL; MIC [26]: > 50 µg/mL; MIC [27, 32]: 6.25 µg/mL (≈ 6.34 µM); MIC (Streptococcus sp. 19F; [32]): 3.12 µg/mL (≈ 3.16 µM); ED50 ([28]; C203, Oral, mice, mg/kg × 2, doses given 1 and 4 hours postinfection, read-out: ED50): 43.5 mg/kg; ED50 ([28]; C203, sc, Subcutaneous, mice, mg/kg × 2, doses given 1 and 4 hours postinfection, read-out: ED50): 6.6 mg/kg
2 | CCC1OC(=O)CC(O)C(C)C(OC2OC(C)C(OC3CC(C)(O)C(O)C(C)O3)C(N(C)C)C2OC(C)=O)C(CC=O)CC(C)C(=O)C=CC(C)=CC1COC1OC(C)C(OC(C)=O)C(OC(=O)Cc2ccccc2)C1OC (stereo not shown) [Compound 17, 2',4'"-Di-O-acetyl-3'"-O-phenylacetylmacrocin] | > 128 | > 128 | > 128 | > 128 | – | – | 4 (≈ 3.62 µM) | 2 (≈ 1.81 µM) | 2 (≈ 1.81 µM) | 1 (≈ 0.906 µM) | 4 (≈ 3.62 µM) | > 50 | 12.5 (≈ 11.3 µM) | 12.5 (≈ 11.3 µM) | > 50 | > 50 | > 50 | > 50 | > 50 | > 50 | MIC [2]: > 128 µg/mL; MIC [5]: 2 µg/mL (≈ 1.81 µM); MIC [6]: 2 µg/mL (≈ 1.81 µM); MIC [8]: 2 µg/mL (≈ 1.81 µM); MIC [9]: 4 µg/mL (≈ 3.62 µM); MIC [14]: 1 µg/mL (≈ 0.906 µM); MIC [17]: 0.39 µg/mL (≈ 0.353 µM); MIC (Mycoplasma hyorhinis 29E): 3.12 µg/mL (≈ 2.83 µM); MIC (Mycoplasma synoviae 40A): 1.56 µg/mL (≈ 1.41 µM); MIC [25]: > 50 µg/mL; MIC [26]: > 50 µg/mL; MIC [27]: 3.12 µg/mL (≈ 2.83 µM); MIC (Streptococcus sp. 19F): 1.56 µg/mL (≈ 1.41 µM); ED50 ([28]; C203, sc): > 10 mg/kg
3 | CCC1OC(=O)CC(O)C(C)C(OC2OC(C)C(O)C(N(C)C)C2O)C(CCN2C[C@H](C)C[C@H](C)C2)CC(C)C(=O)C=CC(C)=CC1COC1OC(C)C=CC1OC (stereo partly drawn) [Compound 45, 3",4"-Di(dehydrodeoxy)-20-deoxo-20-(cis-3,5-dimethylpiperidin-1-yl)-lactenocin] | 64 (≈ 77.9 µM) | 1 (≈ 1.22 µM) | – | – | 0.12 (≈ 0.146 µM) | 0.12 (≈ 0.146 µM) | – | – | 0.25 (≈ 0.304 µM) | 0.06 (≈ 0.0731 µM) | 0.06 (≈ 0.0731 µM) | – | – | – | – | – | – | – | – | – | MIC [2]: 1 µg/mL (≈ 1.22 µM); MIC ([3]; agar-dilution, read-out: MIC): 128 µg/mL (≈ 156 µM); MIC ([4]; agar-dilution, read-out: MIC): > 128 µg/mL; MIC ([7]; agar-dilution, Methicillin-resistant strain, read-out: MIC): 0.06 µg/mL (≈ 0.0731 µM); MIC [29]: 0.12 µg/mL (≈ 0.146 µM); MIC [30]: 0.5 µg/mL (≈ 0.609 µM); MIC [14]: 0.06 µg/mL (≈ 0.0731 µM)
